The source of these data is patent US11840545B1, “Spirooxindole-copper complex as novel efficient anticorrosion agent for C-steel” (KING FAISAL UNIVERSITY, priority 2023, dated 2023).

Assay [1] can be described thus: Impedance study of corrosion inhibition, equivalent circuit model CPE with Diffusion. The conditions noted are these: for IE: impedance, C-steel, 1M HCl, 298 K; for % inhibition from Impedance: summary Table 16, C-steel in 1 M HCl; for % Inhibition from Impedance studies: summary Table 17, C-steel in 1 M HCl. An excerpt: (§1) In an embodiment, the thus formed CuL copper complex can undergo anticorrosion studies by adding the obtained CuL copper complex to hydrochloric acid (for example, at 1M) using a C-steel electrode.
(§2) The % inhibition of Spiro compounds SP34, SP37 and SP311 and their copper complexes for C-steel in hydrochloric acid solution (1M) were computed by Impedance and Polarization studies. The model used for the electrochemical equivalent circuit to fit the impedance for anticorrosion studies of Carbon steel (C-steel) by Spiro inhibitors was CPE with diffusion as shown in FIG. 7.

Assay [2] is described as follows: Polarization (Tafel) study of corrosion inhibition. The conditions noted are these: for IE: polarization, C-steel, 1M HCl, 298 K; for % inhibition from Tafel: summary Table 16, C-steel in 1 M HCl; for % Inhibition from Tafel plots: summary Table 18, C-steel in 1 M HCl.
Excerpt: as §1, §2

Regarding `Cc1[nH]nnc1C(=O)[C@H]1[C@H](c2ccc(Cl)cc2Cl)C2CSCN2[C@]12C(=O)Nc1cc(Cl)ccc12` (stereo partly drawn) [SP 34, (3R,6'S,7′R)-6-chloro-7′-(2,4-dichlorophenyl)-6′-(5-methyl-1H-1,2,3-triazole-4-carbonyl)-1′,6′,7′,7a′-tetrahydro-3′H-spiro[indoline-3,5′-pyrrolo[1,2-c]thiazol]-2-one], the IE in assay [1] (0.037 mM) was 82.48%; in assay [1] (0.075 mM), 94.25%; in assay [1] (0.112 mM), 97.37%; in assay [2] (0.037 mM) it was 90.5%; in assay [2] (0.075 mM) it was 97.1%; in assay [2] (0.112 mM) it was 98.6%. Also, in assay [1], the “% inhibition from Impedance” value is recorded as 96.97%. Also, in assay [1], the “% Inhibition from Impedance studies” value was found to be 96.97%. Also, in assay [2], the “% inhibition from Tafel” value was determined as 98.6%. The “% Inhibition from Tafel plots” value in assay [2] is reported as 98.6%.

As for `Cc1[nH]nnc1C(=O)[C@H]1[C@H](c2cccc([N+](=O)[O-])c2)C2CSCN2[C@]12C(=O)Nc1cc(Cl)ccc12` (stereo partly drawn) [SP 37, (3R,6'S,7′R)-6-chloro-6′-(5-methyl-1H-1,2,3-triazole-4-carbonyl)-7′-(3-nitrophenyl)-1′,6′,7′,7a′-tetrahydro-3′H-spiro[indoline-3,5′-pyrrolo[1,2-c]thiazol]-2-one], the IE in assay [1] (0.039 mM) worked out at 21.25%; in assay [1] (0.078 mM) it was 46.85%; in assay [1] (0.117 mM) it was 56.53%; in assay [2] (0.039 mM), 49.0%; in assay [2] (0.078 mM) it was 72.7%; in assay [2] (0.117 mM) it was 82.1%. For the same compound, in assay [1], the “% inhibition from Impedance” value was found to be 56.53%. Also, the “% Inhibition from Impedance studies” value in assay [1] is recorded as 56.53%. Also, the “% inhibition from Tafel” value in assay [2] is recorded as 82.1%. Moreover, the “% Inhibition from Tafel plots” value in assay [2] is given as 82.1%.

Regarding `Cc1[nH]nnc1C(=O)[C@H]1[C@H](c2cccc(Br)c2)C2CSCN2[C@]12C(=O)Nc1cc(Cl)ccc12` (stereo partly drawn) [SP 311, (3R,6'S,7′R)-7′-(3-bromophenyl)-6-chloro-6′-(5-methyl-1H-1,2,3-triazole-4-carbonyl)-1′,6′,7′,7a′-tetrahydro-3′H-spiro[indoline-3,5′-pyrrolo[1,2-c]thiazol]-2-one], the IE in assay [1] (0.036 mM) was 14.26%; in assay [1] (0.073 mM), 8.96%; in assay [1] (0.109 mM), 62.89%; in assay [2] (0.036 mM) it was −1.5%; in assay [2] (0.073 mM), 13.0%; in assay [2] (0.109 mM) it was 81.6%. In addition, in assay [1], the “% inhibition from Impedance” value came to 62.89%. Also, in assay [1], the “% Inhibition from Impedance studies” value worked out at 62.89%. In assay [2], the “% inhibition from Tafel” value turned out to be 81.6%. Also, the “% Inhibition from Tafel plots” value in assay [2] came out at 81.6%.
